Results taken from US12497405B2, “Bicyclic heterocycle compounds methods of use thereof for the treatment of herpes viruses” (Merck Sharp & Dohme LLC, priority 2019, dated 2025).
Where two headings read alike, the source gives them in different places.

Columns and labels:
[1] = target: Human cytomegalovirus DNA polymerase (Human cytomegalovirus (strain AD169) (HHV-5) (Human herpesvirus 5), UniProt P08546); test: CMV polymerase assay (AlphaLISA); type: biochemical; conditions: HCMV polymerase 0.2 nM, 30 min pre-incubation, 60 minute at 37° C.
Method: (§1) Human cytomegalovirus and varicella zoster virus DNA polymerases were expressed via baculovirus vector in SF21 cells and purified. Heterodimeric nucleic acid substrate used in the herpesvirus polymerase reactions were generated by annealing a 59-mer template to a 17-mer digoxigenin-labeled primer. Polymerase (HCMV final concentration of 0.2 nM; VZV final concentration of 0.4 nM) was combined with an inhibitor compound or DMSO in assay buffer (10 mM HEPES, pH 7.5, 25 mM KCl, 25 mM NaCl, 5 mM MgCl2, 5% glycerol, 0.67 mg/ml bovine serum albumin, and 1 mM tris(2-carboxyethyl)phosphine)), and this mixture was pre-incubated for 30 minutes at room temperature in 384-well microtiter plates. The polymerization reaction was initiated by the addition of template/primer substrate (final concentration: 1.6 nM), and dNTPs (final concentration: 24 nM dCTP, 24 nMdGTP, 16 nM dATP, 16 nM dTTP, and 0.8 nM biotin-dUTP). After a 60 minute incubation period at 37° C., the reactions were terminated using quench buffer (25 mM HEPES pH 7.5, 100 mM NaCl, 0.25% Tween-20, 12 mM EDTA, and 1 mg/ml bovine serum albumin). Incorporation of biotinylated UTP was detected with 2.5-5 μg/mL anti-DIG AlphaLISA acceptor beads and 5-10 μg/mL streptavidin AlphaLISA donor beads (PerkinElmer). Compound effects were normalized to the window defined by the controls (DMSO only and pre-quenched wells), and were fit using a 4-parameter algorithm to report an IC50.

[2] = target: varicella zoster virus DNA polymerase (Varicella-zoster virus (strain Dumas) (HHV-3) (Human herpesvirus 3), UniProt P09252); test: VZV polymerase assay (AlphaLISA); type: biochemical; conditions: VZV polymerase 0.4 nM, 30 min pre-incubation, 60 minute at 37° C.
Method: as §1

HSV2 = test: Viral qPCR assay, HSV2; type: cell-based; conditions: infected cells, viral genome copies by qPCR normalized to PPIA, read-out: HSV2 Cell EC50
Method: (§2) MRC5 cells, Vero cells, and MeWo cells were obtained from ATCC, and were maintained at 37° C./5% CO2/90% relative humidity in Minimal Essential Medium with 10% fetal bovine serum, […] L-glutamine, 100 units/ml penicillin and 100 ug/ml streptomycin. Assay plates were prepared by dispensing compounds dissolved in DMSO into wells of 384 well collagen-coated plates using an ECHO acoustic dispenser. Each test compound was tested in a 10-point, serial 3-fold dilution. Controls included uninfected cells and infected cells treated only with DMSO. Assays were initiated by mixing selected cells, in suspension, with virus, and dispensing 50 μl/well infected cells to pre-plated compounds. Plates were incubated at 37° C./5% CO2/90% relative humidity for ˜72 hrs to permit genomic replication, and infected cells were lysed by the addition of an equal volume of lysis buffer (10 mM Tris-HCl, pH8, 50 mM KCl, 2 mM MgCl2, 0.45% NP-40, 0.45% Tween-20, and 100 µg/ml proteinase K). An aliquot of the lysate was then transferred to a 384-well PCR plate and incubated at 56° C. for 1 hour, and then at 95° C. for 10 minutes. Levels of the selected viral gene and of the cellular control, PPIA, were measured in separate 10 μl qPCR assays using TaqMan® Gene Expression Master Mix (Applied Biosystems), and an 7900HT Fast Real-Time PCR System with 384-Well Block Module. 7-point, serial 10-fold dilutions of a plasmid standard were run on each plate to generate a standard curve, and genome copies numbers were calculated by plotting experimental Ct onto linear regression of the standard curve. Viral genome copy numbers were normalized by cellular control copy number, and compound effects were normalized to the window defined by the controls. Calculated % effects were fit using a 4-parameter algorithm, and EC50 was reported.

HSV1 = test: Viral qPCR assay, HSV1; type: cell-based; conditions: infected cells, viral genome copies by qPCR normalized to PPIA, read-out: HSV1 Cell EC50
Method: as §2

CMV = test: Viral qPCR assay, CMV; type: cell-based; conditions: infected cells, viral genome copies by qPCR normalized to PPIA, read-out: CMV Cell EC50
Method: as §2

Compound | IC50 [1] [nM] | IC50 [2] [nM] | EC50 (HSV2; Human alphaherpesvirus 2, 72 h) [nM] | EC50 (HSV1; Human alphaherpesvirus 1, 72 h) [nM] | EC50 (CMV; Human betaherpesvirus 5, 72 h) [nM] | EC50 (HSV2; ~72 hrs) [nM] | EC50 (HSV1; ~72 hrs) [nM] | EC50 (CMV; ~72 hrs) [nM]
CC(c1ccc(Cl)cc1)n1ccc2ncc(O[C@H]3CCN4C(=O)OC[C@@H]4C3)cc2c1=O (single isomer, unassigned) [Example 30] | 207 | 157 | – | – | – | – | – | –
CC(O)Cc1nc2ccn(Cc3ccc(Cl)cc3)c(=O)c2cc1O[C@H]1CCN2C(=O)OC[C@@H]2C1 (single isomer, unassigned) [Example 33] | 7.4 | 13 | 234 | 266 | 156 | – | – | –
CC(=O)N1CC[C@@H](Oc2cnc3ccn(Cc4ccc(Cl)cc4)c(=O)c3c2)C[C@H]1C (single isomer, unassigned) [Example 35] | 66 | 82 | – | – | – | – | – | –
C[C@@H]1CN(C2CCOC2)CCN1c1ccc2ncn(Cc3ccc(Cl)cc3)c(=O)c2c1 (single isomer, unassigned) [Example 44] | 77 | 144 | 1250 | 1460 | 521 | – | – | –
CC1CN(C)CCC1(F)c1ccc2ncn(Cc3ccc(Cl)cc3)c(=O)c2c1 (single isomer, unassigned) [Example 47] | 84 | 102 | 1370 | 1580 | 550 | – | – | –
Cc1nc2cc(C3CC(O)C3)c(O[C@H]3CCN4C(=O)OC[C@@H]4C3)cc2c(=O)n1Cc1ccc(Cl)cc1 (single isomer, unassigned) [Example 61] | 6.5 | 11 | – | – | – | 202 | 250 | 173
Cc1nc2cc(C3CC(O)C3)c(O[C@H]3CCN4C(=O)OC[C@@H]4C3)cc2c(=O)n1Cc1ccc(Cl)cc1 (single isomer, unassigned) [Example 62] | 1 | 4.8 | – | – | – | 57 | 113 | 57
Cc1nc2cc(C3CC(C)(O)C3)c(O[C@H]3CCN4C(=O)OC[C@@H]4C3)cc2c(=O)n1Cc1ccc(Cl)cc1 (single isomer, unassigned) [Example 77] | 3.1 | 3.4 | 165 | 157 | 217 | – | – | –
Cc1nc2cc(C3CC(N)C3)c(O[C@H]3CCN4C(=O)OC[C@@H]4C3)cc2c(=O)n1Cc1ccc(C#N)cc1 (single isomer, unassigned) [Example 83] | 19 | 20 | 21000 | 6690 | 4600 | – | – | –
Cc1nc2cc(C3CCC3O)c(O[C@H]3CCN4C(=O)OC[C@@H]4C3)cc2c(=O)n1Cc1ccc(C#N)cc1 (single isomer, unassigned) [Example 85] | 10 | 11 | 736 | 673 | 338 | – | – | –
O=C1OC[C@@H]2C[C@@H](Oc3cnc4c(C5CC5)cn(Cc5ccc(Cl)cc5)c(=O)c4c3)CCN12 [Example 1] | 69 | 75 | – | – | – | 1540 | 2700 | 1040
O=C1OC[C@@H]2C[C@@H](Oc3cc4c(=O)n(Cc5ccc(Cl)cc5)ccc4cn3)CCN12 [Example 2] | 49 | 44 | – | – | – | 1050 | 1700 | 872
Cc1nc2cc(CC(C)(C)O)c(O[C@H]3CCN4C(=O)OC[C@@H]4C3)cc2c(=O)n1Cc1ccc(Cl)cc1 [Example 3] | 2.4 | 0.5 | – | – | – | 55 | 75 | 37
Cc1nc2cc(-c3cnn(C(F)F)c3)c(O[C@H]3CCN4C(=O)OC[C@@H]4C3)cc2c(=O)n1Cc1ccc(Cl)cc1 [Example 4] | 1.1 | 3.1 | – | – | – | 26 | 60 | 51
COc1ncc(-c2cc3nc(C)n(Cc4ccc(Cl)cc4)c(=O)c3cc2O[C@H]2CCN3C(=O)OC[C@@H]3C2)cn1 [Example 5] | 15 | – | – | – | – | 85 | 131 | 107
